Laboratory results taken from patent publication US10065941B2, “Aminotriazine derivative and pharmaceutical composition comprising the same” (Shionogi & Co., Ltd., priority 2013, dated 2018).

Biological target: human P2X3 receptor (Homo sapiens (Human), UniProt P56373)
Experiment: Evaluation of human P2X3 receptor inhibitory activity (Test Example 1)
Type: cell-based
Settings: C6BU-1 cell transfected with human P2X3 receptor gene, FLIPR 384
Protocol: Stably expressing cell line (C6BU-1 cell transfected with human P2X3 receptor gene (GenBank accession number Y07683) was used. The cells were seeded in a 384-well PDL-coated microtiter plate at a concentration of 3000 cells/well and cultured in the medium (8.3% fetal bovine serum, 8.3% horse serum, and 1% antibiotic and antifungal in DMEM) for one day at 37° C. under 5% carbon dioxide atmosphere. The medium was replaced with 4 μM Fluo-3-AM solution (20 mM HEPES, 137 mM NaCl, 2.7 mM KCl, 0.9 mM MgCl2, 5.0 mM CaCl2, 5.6 mM D-glucose, 2.5 mM probenecid, 0.5% BSA, and 0.04% Pluronic F-127, pH 7.5) and incubated at 37° C. under 5% dioxide carbon atmosphere for one hour. The plate was washed with washing buffer (20 mM HEPES, 137 mM NaCl, 2.7 mM KCl, 0.9 mM MgCl2, 5.0 mM CaCl2, 5.6 mM D-glucose, 2.5 mM probenecid, pH7.5), and each well was added with 20 μL of the washing buffer. The plate was placed in High-Throughput Screening System FLIPR 384 (Molecular Device Co.). Measurement of fluorescence intensity by FLIPR 384 was started, and 20 μL of DMSO solutions containing different concentrations of the test compound as prepared by dilution with dilution buffer (20 mM HEPES, 137 mM NaCl, 2.7 mM KCl, 0.9 mM MgCl2, 5.0 mM CaCl2, 5.6 mM D-glucose, 2.5 mM probenecid, 0.1% Pluronic F-127, pH7.5) were dispensed to each well through the built-in automatic dispenser. Five minutes after, 150 nM ATP solution (25 μL) prepared by dilution with the dilution buffer was dispensed through the built-in automatic dispenser, and the measurement of fluorescence intensity was continued for 4 min. For each well, the specific maximum fluorescence intensity was calculated as the ratio of the maximum fluorescence intensity after addition of the ATP solution to the fluorescence intensity at the starting of the measurement. […] The specific maximum fluorescence intensity and IC50 were calculated using Spotfire (Science & Technology Systems, Inc.)

Chain of human P2X3 receptor (P56373 whole entry): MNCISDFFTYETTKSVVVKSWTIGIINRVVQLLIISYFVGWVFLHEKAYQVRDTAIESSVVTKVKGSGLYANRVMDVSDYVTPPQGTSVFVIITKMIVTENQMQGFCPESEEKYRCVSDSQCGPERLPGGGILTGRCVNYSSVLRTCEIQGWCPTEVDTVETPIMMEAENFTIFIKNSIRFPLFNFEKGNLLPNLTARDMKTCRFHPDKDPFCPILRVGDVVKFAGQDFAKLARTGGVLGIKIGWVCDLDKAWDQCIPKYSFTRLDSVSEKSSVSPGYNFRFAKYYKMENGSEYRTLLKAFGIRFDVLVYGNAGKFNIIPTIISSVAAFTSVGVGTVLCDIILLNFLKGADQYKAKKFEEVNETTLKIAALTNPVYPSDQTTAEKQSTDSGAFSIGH

Row | SMILES | IC50
1 | CC(C)Oc1ccc(/N=c2\[nH]c(=O)n(C[C@@H](O)CC(=O)O)c(=O)n2Cc2ccc(Cl)cc2)cc1Cl [Compound R-179] | 56 nM
2 | COc1ccc(Oc2ccc(/N=c3\[nH]c(=O)n(C[C@H](C)C(=O)O)c(=O)n3Cc3ccc(C)cc3)cc2)nc1 [Compound I-229] | 6 nM
3 | Cc1ccc(Cn2c(=O)n([C@H]3C[C@@H](C(=O)O)C3)c(=O)[nH]/c2=N\c2ccc(Oc3ccccn3)cc2)cc1 [Compound I-185] | 9 nM
4 | COC(=O)[C@@H](C)Cn1c(=O)[nH]/c(=N\c2ccc(Oc3ccc(C(C)=O)cn3)cc2)n(Cc2ccc(C)cc2)c1=O [Compound I-267] | 3 nM
5 | COC(=O)[C@@H](C)Cn1c(=O)[nH]/c(=N\c2ccc(Oc3ncc(C)s3)cc2)n(Cc2ccc(Cl)cc2)c1=O [Compound R-132] | 10 nM
6 | COC(=O)[C@@H](C)Cn1c(=O)[nH]/c(=N\c2ccc(Oc3ccccn3)cc2)n(Cc2ccc(CF)cc2)c1=O [Compound I-206] | 10 nM
7 | COC(=O)C(C)(C)Cn1c(=O)[nH]/c(=N\c2ccc(Oc3cc(Cl)ncn3)cc2)n(Cc2ccc(Cl)cc2)c1=O [Compound R-047] | 9 nM
8 | O=C(Cn1c(=O)[nH]/c(=N\c2ccc(Oc3ccccn3)cc2)n(Cc2ccc(Cl)cc2)c1=O)NCCO [Compound R-242] | 5 nM
9 | C[C@@H](Cn1c(=O)[nH]/c(=N\c2ccc(Oc3ccc(C(F)(F)F)nn3)cc2)n(Cc2ccc(Cl)cc2)c1=O)C(=O)O [Compound R-030] | 8 nM
10 | Cc1ccc(Cn2c(=O)n([C@H]3C[C@H](C(=O)O)C3)c(=O)[nH]/c2=N\c2ccc(Oc3ccc(F)cn3)cc2)cc1 [Compound I-182] | 8 nM
11 | COC(=O)[C@@H](C)Cn1c(=O)[nH]/c(=N\c2ccc(Oc3ccc(CF)cn3)cc2)n(Cc2ccc(Cl)cc2)c1=O [Compound I-238] | 5 nM
12 | CCn1c(=O)[nH]/c(=N\c2ccc(Oc3ccc(C(=O)O)c(Cl)n3)cc2)n(Cc2ccc(Cl)cc2)c1=O [Compound R-066] | 58 nM
13 | COC(=O)[C@@H](C)Cn1c(=O)[nH]/c(=N\c2ccc(O[C@H](C)C(F)(F)F)c(C)c2)n(Cc2ccc(Cl)cc2)c1=O [Compound R-097] | 212 nM
14 | COc1cc(Oc2ccc(/N=c3\[nH]c(=O)n(CC(C)(C)C(=O)O)c(=O)n3Cc3ccc(Cl)cc3)cc2)cc(F)n1 [Compound R-071] | 6 nM
15 | Cn1c(=O)[nH]/c(=N\c2ccc(Oc3cccc(C(=O)Nc4ccc(C(=O)O)cc4)n3)cc2)n(C[C@H]2CC[C@H](C)CC2)c1=O [Compound R-006] | 4 nM
16 | COC(=O)[C@@H](C)Cn1c(=O)[nH]/c(=N\c2ccc(Oc3cc(F)ccn3)cc2)n(Cc2ccc(Cl)cc2)c1=O [Compound I-068] | 5 nM
17 | COC(=O)[C@@H](C)Cn1c(=O)[nH]/c(=N\c2ccc(Oc3ncccc3C(F)(F)F)cc2)n(Cc2ccc(Cl)cc2)c1=O [Compound I-030] | 176 nM
18 | CC(C)(Cn1c(=O)[nH]/c(=N\c2ccc(Oc3ccc(C(F)(F)F)nn3)cc2)n(Cc2ccc(Cl)cc2)c1=O)C(=O)O [Compound R-031] | 12 nM
19 | Cc1cncc(Oc2ccc(/N=c3\[nH]c(=O)n(CC(C)(C)C(=O)O)c(=O)n3Cc3ccc(Cl)cc3)cc2)c1 [Compound R-194] | 13 nM
20 | COC(=O)[C@@H](C)Cn1c(=O)[nH]/c(=N\c2ccc(Oc3ccc(F)cn3)cc2)n(Cc2ccc(CF)cc2)c1=O [Compound I-208] | 12 nM
21 | Cc1ccc(Cn2c(=O)n(C[C@H](C)C(=O)O)c(=O)[nH]/c2=N\c2ccc(Oc3ccc(CF)cn3)cc2)cc1 [Compound I-242] | 8 nM
22 | COC(=O)[C@@H](C)Cn1c(=O)[nH]/c(=N\c2ccc(N3CCCCC3)c(F)c2)n(Cc2ccc(Cl)cc2)c1=O [Compound R-140] | 37 nM
23 | CC(C)(Cn1c(=O)[nH]/c(=N\c2ccc(Oc3ncccc3C(F)(F)F)cc2)n(Cc2ccc(Cl)cc2)c1=O)C(=O)O [Compound I-033] | 23 nM
24 | COC(=O)C[C@@H](C)n1c(=O)[nH]/c(=N\c2ccc(Oc3ccccn3)cc2)n(Cc2ccc(Cl)cc2)c1=O [Compound I-157] | 5 nM
